# According to BindingDB's records for doi:10.1021/jm401695d (Emory University, 2014):
# Target: Glutamate NMDA receptor; Grin1/Grin2c (Rattus norvegicus, UniProt Q00961+P35439)
# Assay: Potentiation of rat recombinant GluN1/GluN2C expressed in Xenopus laevis oocytes assessed as increase in glutamate/glycine-induced current response by two-electrode voltage clamp technique relative to control
# Chain of Glutamate NMDA receptor; Grin1/Grin2c (Q00961 whole entry, other chains not shown): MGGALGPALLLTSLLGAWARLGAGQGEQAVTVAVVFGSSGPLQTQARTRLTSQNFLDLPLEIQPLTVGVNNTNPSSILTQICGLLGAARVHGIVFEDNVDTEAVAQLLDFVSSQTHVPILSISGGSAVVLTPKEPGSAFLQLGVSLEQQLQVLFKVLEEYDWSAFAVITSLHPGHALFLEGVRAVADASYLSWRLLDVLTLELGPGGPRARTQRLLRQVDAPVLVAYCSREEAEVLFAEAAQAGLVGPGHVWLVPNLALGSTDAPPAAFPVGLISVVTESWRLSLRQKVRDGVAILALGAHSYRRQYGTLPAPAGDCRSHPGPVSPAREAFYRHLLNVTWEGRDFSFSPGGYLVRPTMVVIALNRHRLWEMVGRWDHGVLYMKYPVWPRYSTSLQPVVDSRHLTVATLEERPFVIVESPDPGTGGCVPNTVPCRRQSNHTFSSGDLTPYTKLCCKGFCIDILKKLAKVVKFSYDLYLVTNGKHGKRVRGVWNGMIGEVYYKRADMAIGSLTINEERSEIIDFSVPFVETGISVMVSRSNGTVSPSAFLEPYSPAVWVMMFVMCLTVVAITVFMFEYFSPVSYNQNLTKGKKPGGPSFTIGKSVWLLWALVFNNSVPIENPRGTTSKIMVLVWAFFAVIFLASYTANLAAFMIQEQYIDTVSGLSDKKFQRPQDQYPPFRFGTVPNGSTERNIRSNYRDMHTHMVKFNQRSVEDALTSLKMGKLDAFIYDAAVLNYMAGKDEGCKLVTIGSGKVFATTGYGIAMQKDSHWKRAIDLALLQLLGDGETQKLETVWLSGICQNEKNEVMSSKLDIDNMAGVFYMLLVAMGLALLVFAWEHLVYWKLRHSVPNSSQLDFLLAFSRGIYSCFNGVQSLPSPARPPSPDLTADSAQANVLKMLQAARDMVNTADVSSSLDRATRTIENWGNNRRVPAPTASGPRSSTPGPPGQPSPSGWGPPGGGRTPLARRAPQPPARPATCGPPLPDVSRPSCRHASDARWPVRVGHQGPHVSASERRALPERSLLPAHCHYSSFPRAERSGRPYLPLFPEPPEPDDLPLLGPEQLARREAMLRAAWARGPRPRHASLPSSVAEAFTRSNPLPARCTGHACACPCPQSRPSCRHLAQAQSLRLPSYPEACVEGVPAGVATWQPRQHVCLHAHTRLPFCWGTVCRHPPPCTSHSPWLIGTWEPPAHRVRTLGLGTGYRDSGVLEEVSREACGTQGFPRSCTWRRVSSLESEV
smiles,measurement,value
COC(=O)c1ccc(C2C(C(C)=O)=C(O)C(=O)N2CCc2c(C)[nH]c3ccccc23)cc1 (stereo unspecified),EC50,16 µM
